Measurements: patent EP0623346B1, “INHIBITOR FOR METASTASIS OF MALIGNANT TUMOR” (TORAY INDUSTRIES, INC., priority 1992, dated 1994)
Marks after values point to notes of the source that are not given here.

How the values were obtained:
[1] = test system: Mouse Melanoma B16F10; assay: Effectiveness on blood-mediated metastasis in mice of mouse melanoma B16F10 (lung metastasized nodes); assay type: in vivo, C57/BL6 mice; conditions: for Number of Metastasized Nodes (mean ± standard error): simultaneously with 10^6 cells/mouse in tail vein, lung surface nodes counted after 14 days; for Metastasis Inhibition Rate (%): versus control group, p< 0.001
Method: [Effectiveness on Blood-mediated Metastasis in Mice of Mouse Melanoma B16F10]
Liquid-cultured mouse melanoma cells were transplanted in tail veins of C57/BL6 mice (6 weeks old, male) in an amount of 10^6 cells/mouse. Simultaneously, beraprost sodium salt was administered intravenously at a dose of 0.03 mg/kg, 0.1 mg/kg or 0.3 mg/kg. To a control group, phosphate buffer saline was administered. Fourteen days after the administration, mice were sacrificed and the lung was removed from each mouse. From the trachea communicating to the lung, 10% neutral buffered formalin solution was poured to inflate the lung, and the lung was immersed in 10% neutral buffered formalin solution to fix the lung. Several days later, each lung was divided and the number of the metastasized nodes on the surface of each leaf was counted with a stereoscopic microscope.
The statistical analysis of this example was carried out according to the student's t-test.

[2] = Acute toxicity test; assay type: in vivo, rats; conditions: for LD50: 14 days observation, 95% reliable limit in parentheses, Litchfield-Wilcoxon Method
Method: Acute toxicity test was carried out using rats.
The numbers in parentheses indicate 95% reliable limit.

Structure (SMILES): CC#CCC(C)[C@H](O)/C=C/[C@@H]1[C@H]2c3cccc(CCCC(=O)O)c3O[C@H]2C[C@H]1O (mixture of isomers) [Beraprost, (±)-(1R*, 2R*, 3aS*, 8bS*)-2,3,3a,8b-tetrahydro-2-hydroxy-1-[(E)-(3S*)-3-hydroxy-4-methyl-1-octene-6-inyl]-1H-cyclopenta[b]benzofuran-5-butyric acid]
- Number of Metastasized Nodes (mean ± standard error) ([1]; 0.03 mg/kg intravenously): 204 ± 24
- Metastasis Inhibition Rate (%) ([1]; 0.03 mg/kg intravenously): 48*** %
- Number of Metastasized Nodes (mean ± standard error) ([1]; 0.1 mg/kg intravenously): 160 ± 28
- Metastasis Inhibition Rate (%) ([1]; 0.1 mg/kg intravenously): 52*** %
- Number of Metastasized Nodes (mean ± standard error) ([1]; 0.3 mg/kg intravenously): 167 ± 21
- Metastasis Inhibition Rate (%) ([1]; 0.3 mg/kg intravenously): 49*** %
- maximum inhibition rate of metastasis of B16F10 to mouse lungs ([1]; maximum over doses 0.03-0.3 mg/kg intravenously): 52%
- LD50 ([2]; Intravenous, Female): 13 (10-16) mg/kg
- LD50 ([2]; Intravenous, Male): 18 (15-22) mg/kg
- LD50 ([2]; Oral, Female): 12 (9-15) mg/kg
- LD50 ([2]; Oral, Male): 15 (13-19) mg/kg
- LD50 ([2]; Subcutaneous, Female): 7 ( 6- 9) mg/kg
- LD50 ([2]; Subcutaneous, Male): 13 (12-14) mg/kg
- pathological observation, main findings ([2]; animals that were killed, common to male and female and to all administration routes): slight to medium congestion in lung, slight to medium bleeding in glandular stomach and slight small intestine catarrh
